In one assay the target is T1, DNA polymerase lambda (Homo sapiens, UniProt Q9UGP5).
T1 sequence (Q9UGP5 whole entry): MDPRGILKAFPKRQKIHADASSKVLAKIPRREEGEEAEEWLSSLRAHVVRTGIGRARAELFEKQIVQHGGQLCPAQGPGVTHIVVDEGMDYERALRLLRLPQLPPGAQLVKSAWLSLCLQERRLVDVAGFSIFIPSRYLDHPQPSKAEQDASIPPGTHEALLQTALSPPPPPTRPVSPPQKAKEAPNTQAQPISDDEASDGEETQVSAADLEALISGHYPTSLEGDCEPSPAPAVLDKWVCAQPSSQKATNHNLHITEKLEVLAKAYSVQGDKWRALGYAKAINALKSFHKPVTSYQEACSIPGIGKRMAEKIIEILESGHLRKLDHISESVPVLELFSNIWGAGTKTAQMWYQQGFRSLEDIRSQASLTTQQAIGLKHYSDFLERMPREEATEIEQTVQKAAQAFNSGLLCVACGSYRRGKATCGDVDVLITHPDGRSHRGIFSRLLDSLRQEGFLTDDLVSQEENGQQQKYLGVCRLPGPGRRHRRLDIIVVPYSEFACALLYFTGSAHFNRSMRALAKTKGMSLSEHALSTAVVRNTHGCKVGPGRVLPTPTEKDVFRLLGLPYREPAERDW
In words: DNA Pol λ PEX Assay. Conditions: pH 7.5. The procedure:
Pol λ reactions were made in a final volume of 20uL containing 50mM Tris-HCl pH 7.5, 1.5mM MgCl2, 5% (v/v) glycerol, 1mM DTT, 250nM purified recombinant pol λ, 150nM radioactive-labled primer F20H, 225nM template F33A, 0.1mg/mL BSA, 1uL compound solution with variable concentrations in DMSO (1uL DMSO for the solvent control). 5uL dNTP solution (15uM final) was added to initiate the reactions and positive controls. Reactions and controls were incubated for 30 min at 37 degrees Celsius and subsequently quenched using 45uL PAGE loading solution (80% (v/v) formamide, 20mM EDTA, 0.05% (w/v) bromophenol blue, 0.05% (w/v) xylene cyanol) per well. The reaction mixture was denatured for 5 min at 95 degrees Celsius and analyzed by 12% PAGE containing 8M urea.

The target in another assay is DNA polymerase beta (Homo sapiens, UniProt P06746). The assay is described as follows: DNA Pol β PEX Assay. Conditions: pH 7.9. Here is the method: Pol β reactions were made in a final volume of 20uL containing 50mM Tris-HCl pH 7.9, 20mM KCl, 5% (v/v) glycerol, 1mM DTT, 2mM MnCl2, 250nM purified recombinant pol β, 150nM radioactive-labeled primer F20H, 225nM template F33A, 0.1mg/mL BSA, 1uL compound solution with various concentrations in DMSO (1uL DMSO for the solvent control). 5uL dNTP (15uM final) was added to initiate the reactions and positive controls. Reactions and controls were incubated for 30 min at 37 degrees Celsius and subsequently quenched using 45uL PAGE loading solution (80% (v/v) formamide, 20mM EDTA, 0.05% (w/v) bromophenol blue, 0.05% (w/v) xylene cyanol) per well. The reaction mixture was denatured for 5 min at 95 degrees Celsius and analyzed by 12% PAGE containing 8M urea.

pIC50: −log10 of the molar value.

By pIC50 is commonly meant the negative decadic logarithm of the IC50, by convention in mol/L.

For `Cc1ccc(Sc2ccc(C=C3SC(O)=NC3=O)cc2[N+](=O)[O-])cc1` [(Z)-5-(3-Nitro-4-(p-tolylthio)benzylidene)thiazolidine-2,4-dione 3], the negative-log IC50 (pIC50) at DNA polymerase lambda was > 5.00; against DNA polymerase beta, < 4.30. On to `Cc1ccc(S(=O)(=O)c2ccc(C=C3SC(S)=NC3=O)cc2[N+](=O)[O-])cc1` [(Z)-5-(3-Nitro-4-tosylbenzylidene)-2-thioxothiazolidin-4-one 10], for which the negative logarithm of the IC50 (pIC50) on DNA polymerase lambda is > 4.70. On the same count and under the same terms, as for `Cc1ccc(Sc2ccc(C=C3SC(S)=NC3=O)cc2C#N)cc1` [(Z)-5-((4-Oxo-2-thioxothiazolidin-5-ylidene)methyl)-2-(ptolylthio) benzonitrile 16], the figure is > 5.00.

For `O=C1N=C(S)SC1=Cc1ccc(Sc2ccc(C(F)(F)F)cc2)c([N+](=O)[O-])c1` [(Z)-5-(3-Nitro-4-((4-(trifluoromethyl)phenyl)thio)benzylidene)-2-thioxothiazolidin-4-one 18], the pIC50 against DNA polymerase lambda was > 5.00; on DNA polymerase beta, < 4.30.

With `O=C1N=C(S)SC1=Cc1ccc(Sc2c(F)c(F)c(C(F)(F)F)c(F)c2F)c([N+](=O)[O-])c1` [(Z)-5-(3-Nitro-4-((2,3,5,6-tetrafluoro-4-(trifluoromethyl)phenyl)thio)benzylidene)-2-thioxothiazolidin-4-one 21], the pIC50 at DNA polymerase lambda was > 5.00; against DNA polymerase beta, < 4.30. With `Cc1ccccc1Sc1ccc(C=C2SC(S)=NC2=O)cc1F` [(Z)-5-(3-Fluoro-4-(o-tolylthio)benzylidene)-2-thioxothiazolidin-4-one 29], the pIC50 against DNA polymerase lambda is > 5.00; at DNA polymerase beta, 4.30. Take `Cc1ccc(Sc2sc(C=C3SC(S)=NC3=O)cc2Br)cc1` [(Z)-5-((4-Bromo-5-(p-tolylthio)thiophen-2-yl)methylene)-2-thioxothiazolidin-4-one 32]: the pIC50 at DNA polymerase lambda is > 5.00; against DNA polymerase beta, > 4.30. The like results for `Cc1ccc(Sc2ccc(C=C3SC(S)=NC3=O)cc2C(F)(F)F)cc1` [(Z)-2-Thioxo-5-(4-(p-tolylthio)-3-(trifluoromethyl)benzylidene)thiazolidin-4-one 15] were, in that order, > 5.00 and 4.55. As to `O=C1N=C(S)SC1=Cc1ccc(SC2CCCCC2)c([N+](=O)[O-])c1` [(Z)-5-(4-(Cyclohexylthio)-3-nitrobenzylidene)-2-thioxothiazolidin-4-one 2], the negative-log IC50 (pIC50) against DNA polymerase lambda was > 5.00; on DNA polymerase beta, > 4.30. As to `Cc1ccc(Sc2ccc(C=C3SC(S)=NC3=O)cc2[N+](=O)[O-])cc1` [DNA polymerase inhibitor 1], the results for the negative-log IC50 (pIC50) on DNA polymerase lambda and at DNA polymerase beta were 5.23 and 4.19, respectively.

`Cc1ccccc1Sc1ccc(C=C2SC(S)=NC2=O)cc1[N+](=O)[O-]` [(Z)-5-(3-Nitro-4-(o-tolylthio)benzylidene)-2-thioxothiazolidin-4-one 23]: the negative logarithm of the IC50 (pIC50) against DNA polymerase lambda was 5.41; at DNA polymerase beta, 4.74. For `C=C(c1ccc(Sc2ccc(C)cc2)c([N+](=O)[O-])c1)c1sc(S)nc1O` [(Z)-5-(1-(3-Nitro-4-(p-tolylthio)phenyl)ethylidene)-2-thioxothiazolidin-4-one 8] the same measures were > 5.00 and > 4.30. For `Cc1cccc(Sc2ccc(C=C3SC(S)=NC3=O)cc2[N+](=O)[O-])c1` [(Z)-5-(3-Nitro-4-(m-tolylthio)benzylidene)-2-thioxothiazolidin-4-one 22] the same measures were 5.22 and 4.53. `CCc1ccc(Sc2ccc(C=C3SC(S)=NC3=O)cc2[N+](=O)[O-])cc1` [(Z)-5-(4-((4-Ethylphenyl)thio)-3-nitrobenzylidene)-2-thioxothiazolidin-4-one 17]: the figures for the negative-log IC50 (pIC50) against DNA polymerase lambda and against DNA polymerase beta were > 5.00 and > 4.30, respectively. The like results for `O=C1N=C(S)SC1=Cc1ccc(SC2CCCC2)c([N+](=O)[O-])c1` [(Z)-5-(4-(Cyclopentylthio)-3-nitrobenzylidene)-2-thioxothiazolidin-4-one 26] were, in that order, > 4.70 and < 4.30. Take `O=C1N=C(S)SC1=Cc1ccc(Sc2ccc(OC(F)(F)F)cc2)c([N+](=O)[O-])c1` [(Z)-5-(3-Nitro-4-((4-(trifluoromethoxy)phenyl)thio)benzylidene)-2-thioxothiazolidin-4-one 19]: the negative logarithm of the IC50 (pIC50) at DNA polymerase lambda was > 4.70; against DNA polymerase beta, < 4.30. Regarding `Cc1ccc(Sc2ccc(C=C3SC(S)=NC3=O)cc2[N+](=O)[O-])cc1F` [(Z)-5-(4-((3-Fluoro-4-methylphenyl)thio)-3-nitrobenzylidene)-2-thioxothiazolidin-4-one 20], the pIC50 on DNA polymerase lambda was > 5.00; at DNA polymerase beta, < 4.30. Regarding `Cc1ccc(Sc2ccc(C=C3SC(S)=NC3=O)cc2Cl)cc1` [(Z)-5-(3-Chloro-4-(p-tolylthio)benzylidene)-2-thioxothiazolidin-4-one 13], the pIC50 against DNA polymerase lambda is 5.24; at DNA polymerase beta, < 4.30. For `Cc1ccc(Sc2ccc(C=C3SC(S)=NC3=O)cc2Br)cc1F` [(Z)-5-(3-Bromo-4-((3-fluoro-4-methylphenyl)thio)benzylidene)-2-thioxothiazolidin-4-one 27] the same measures were 5.40 and < 4.30.

Take `Cc1ccccc1Sc1ccc(C=C2SC(S)=NC2=O)cc1` [23 (Z)-2-Thioxo-5-(4-(o-tolylthio)benzylidene)thiazolidin-4-one 28]: the pIC50 on DNA polymerase lambda is > 5.00; against DNA polymerase beta, 4.30. Regarding `Cc1ccccc1Sc1ccc(C=C2SC(S)=NC2=O)cc1C(F)(F)F` [(Z)-2-Thioxo-5-(4-(o-tolylthio)-3-(trifluoromethyl)benzylidene)thiazolidin-4-one 30], the results for the pIC50 against DNA polymerase lambda and against DNA polymerase beta were > 5.00 and > 4.30, respectively.

In the case of `O=C1N=C(S)SC1=Cc1ccc(Sc2ccc3ccccc3c2)c([N+](=O)[O-])c1` [(Z)-5-(4-(Naphthalen-2-ylthio)-3-nitrobenzylidene)-2-thioxothiazolidin-4-one 25], the negative-log IC50 (pIC50) against DNA polymerase lambda was > 5.00; on DNA polymerase beta, < 4.30.

On to `Cc1ccc(Sc2ccc(C=C3SC(S)=NC3=O)cc2)cc1` [(Z)-2-Thioxo-5-(4-(p-tolylthio)benzylidene)thiazolidin-4-one 11], for which the pIC50 is > 5.00 against DNA polymerase lambda and > 4.30 against DNA polymerase beta. The like results for `Cc1ccc(Sc2ccc(C=C3SC(S)=NC3=O)c(Sc3ccc(C)cc3)c2)cc1` [(Z)-5-(2,4-Bis(p-tolylthio)benzylidene)-2-thioxothiazolidin-4-one 31] were, in that order, 5.40 and > 4.30.

Regarding `Cc1ccc(Sc2ccc(C=C3SC(S)=NC3=O)cc2F)cc1` [(Z)-5-(3-Fluoro-4-(p-tolylthio)benzylidene)-2-thioxothiazolidin-4-one 12], the negative logarithm of the IC50 (pIC50) was > 5.00 against DNA polymerase lambda and 4.41 at DNA polymerase beta.

On to `Cc1ccc(Sc2ccc(C=C3SC(S)=NC3=O)cc2Br)cc1` [(Z)-5-(3-Bromo-4-(p-tolylthio)benzylidene)-2-thioxothiazolidin-4-one 14], for which the results for the pIC50 on DNA polymerase lambda and against DNA polymerase beta were > 5.00 and < 4.30, respectively.

(Values after BindingDB's records for doi:10.1021/cb4007562 (University of Konstanz, 2014).)
